What was measured:
HEK293 cells = system: HEK293 cells; parameters: method as in PMID 35916168; details: >10 μM; cited from earlier work
KU-19-19 cells = test: ATPlite luminescence assay of extracellular ATP; type: cell-based, human; details: pretreatment with 10 μM ruthenium red, 50 μM AV3-1
Protocol: KU-19-19 cells (1 × 10^5 per well) were plated in 24-well plates and cultured for 24 hours. Medium was removed, and wells were washed with PBS before adding 1 mL of drugs dissolved in PBS. After 30 minutes, 100 μL of the supernatant was transferred to a 96-well plate. ATP content was measured using the ATPlite luminescence ATP assay (Revvity, catalog number 6016943) following manufacturer’s instructions. Luminescence was recorded using a Polarstar Omega reader and normalized to control wells without addition of drugs.
Fig. 4 TRPV3 activation by AV3-1 was enhanced by cholesterol supplementation and causes ATP release in KU-19-19 bladder cancer cells. […] Current amplitudes were recorded using voltage ramps from −100 mV to +100 mV (500-millisecond duration) and expressed as current density (pA/pF) measured at +100 mV and −100 mV. (C) Quantification of current densities (pA/pF) at −100 mV (inward current) and +100 mV (outward current) at the time points (1, 2) as indicated in (A, B). […] Statistical significance was determined using Kruskal-Wallis ANOVA followed by Conover test; ∗P < .05. […] Inset: Box-and-whisker plots of AV3-1 potencies under control conditions (open box) and following cholesterol supplementation (gray box), derived from individual concentration-response fits and expressed as pEC50 (-log10(EC50 [M])). […]

Row | Compound | effects on HEK293 cells at higher concentrations (HEK293 cells) | effect on AV3-1-evoked ATP release (KU-19-19 cells)
1 | Cc1ccc(O)c(C2CCC(C(C)C)=C2Cl)c1 (centres unmarked) [KS0365] | nonspecific effects | –
2 | N.N.N.N.N.N.N.N.N.N.N.N.N.N.[Cl-].[Cl-].[Cl-].[Cl-].[Cl-].[Cl-].[O-2].[O-2].[Ru+3].[Ru+3].[Ru+4] [ruthenium red, reference compound] | – | reduced ATP levels

Reference: PMC12881674, “Activation of TRPV3 channels in bladder cancer cells stimulates ATP release” (Molecular Pharmacology, 2025)
